From US7485637B2, “Benzoyl-tetrahydropiperidine derivatives” (Hoffmann-La Roche Inc., priority 2005, dated 2009)

What follows are molecules tested against T1, mGlyT-1b (Mus musculus, UniProt P28571) (assay: Glycine Uptake Inhibition Assay (mGlyT-1b)). Conditions: [3H]-glycine uptake, Flp-in-CHO cells transfected with mGlyT-1b cDNA, 20 min preincubation at 22° C.; read-out: IC50 (μM) at GlyT-1.
T1 construct: host or cells: Flp-in-CHO
T1 sequence (P28571 1-651 isoform P28571-2): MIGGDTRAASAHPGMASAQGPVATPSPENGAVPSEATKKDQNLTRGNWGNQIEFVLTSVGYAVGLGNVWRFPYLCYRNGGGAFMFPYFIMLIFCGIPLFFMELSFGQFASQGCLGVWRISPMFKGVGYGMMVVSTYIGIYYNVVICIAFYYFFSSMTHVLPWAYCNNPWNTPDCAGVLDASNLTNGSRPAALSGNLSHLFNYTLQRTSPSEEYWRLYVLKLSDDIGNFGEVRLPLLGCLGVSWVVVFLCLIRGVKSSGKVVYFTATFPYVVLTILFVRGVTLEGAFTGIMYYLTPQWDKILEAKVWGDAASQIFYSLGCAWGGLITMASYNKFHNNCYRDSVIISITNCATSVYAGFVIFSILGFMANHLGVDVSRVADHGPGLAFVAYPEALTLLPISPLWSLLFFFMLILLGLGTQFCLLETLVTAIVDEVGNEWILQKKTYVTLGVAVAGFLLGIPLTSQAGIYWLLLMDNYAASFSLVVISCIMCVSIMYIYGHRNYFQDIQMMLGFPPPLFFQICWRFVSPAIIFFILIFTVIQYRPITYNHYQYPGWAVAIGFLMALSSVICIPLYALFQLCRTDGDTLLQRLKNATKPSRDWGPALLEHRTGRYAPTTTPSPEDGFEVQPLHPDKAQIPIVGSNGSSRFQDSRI
Type: cell-based
Procedure: DMEM complete medium: Nutrient mixture F-12 (Gibco Life-technologies), fetal bovine serum (FBS) 5%, (Gibco life technologies), Penicillin/Streptomycin 1% (Gibco life technologies), Hygromycin 0.6 mg/ml (Gibco life technologies), Glutamine 1 mM Gibco life technologies)
Uptake buffer (UB): 150 mM NaCl, 10 mM Hepes-Tris, pH 7.4, 1 mM CaCl2, 2.5 mM KCl, 2.5 mM MgSO4, 10 mM (+) D-glucose.
Flp-in™-CHO (Invitrogen Cat n° R758-07) cells stably transfected with mGlyT1b cDNA.
Glycine Uptake Inhibition Assay (mGlyT-1b)
On day 1 mammalian cells, (Flp-in™-CHO), transfected with mGlyT-1b cDNA, were plated at the density of 40,000 cells/well in complete F-12 medium, without hygromycin in 96-well culture plates. On day 2, the medium was aspirated and the cells were washed twice with uptake buffer (UB). The cells were then incubated for 20 min at 22° C. with either (i) no potential competitor, (ii) 10 mM non-radioactive glycine, (iii) a concentration of a potential inhibitor. A range of concentrations of the potential inhibitor was used to generate data for calculating the concentration of inhibitor resulting in 50% of the effect (e.g. IC50, the concentration of the competitor inhibiting glycine uptake of 50%). A solution was then immediately added containing [^3H]-glycine 60 nM (11-16 Ci/mmol) and 25 μM non-radioactive glycine. The plates were incubated with gentle shaking and the reaction was stopped by aspiration of the mixture and washing (three times) with ice-cold UB. The cells were lysed with scintillation liquid, shaken 3 hours and the radioactivity in the cells was counted using a scintillation counter.

| IC50 | Structure (SMILES) |
| --- | --- |
| 0.432 µM | O=C(c1cc([N+](=O)[O-])ccc1N1CCOCC1)N1CC=C(c2ccc(Cl)cc2)CC1 [Example 2, [4-(4-Chloro-phenyl)-3,6-dihydro-2H-pyridin-1-yl]-(2-morpholin-4-yl-5-nitrophenyl) methanone] |
| 0.056 µM | CS(=O)(=O)c1ccc(OCC2CC2)c(C(=O)N2CC=C(c3ccc(Cl)cc3)CC2)c1 [Example 10, [4-(4-Chloro-phenyl)-3,6-dihydro-2H-pyridin-1-yl]-(2-cyclopropylmethoxy-5-methanesulfonyl-phenyl)-methanone] |
| 0.251 µM | CS(=O)(=O)c1ccc(C2=CCN(C(=O)c3cc([N+](=O)[O-])ccc3N3CCOCC3)CC2)cc1 [Example 6, [4-(4-Methanesulfonyl-phenyl)-3,6-dihydro-2H-pyridin-1-yl]-(2-morpholin-4-yl-5-nitro-phenyl)-methanone] |
| 0.28 µM | CC(C)Oc1ccc(C#N)cc1C(=O)N1CC=C(c2ccc(Cl)cc2)CC1 [Example 9, 3-[4-(4-Chloro-phenyl)-3,6-dihydro-2H-pyridine-1-carbonyl]-4-isopropoxy-benzonitrile] |
| 0.122 µM | CS(=O)(=O)c1ccc(OCC(F)(F)F)c(C(=O)N2CC=C(c3ccc(C(F)(F)F)cc3)CC2)c1 [Example 4, [5-Methanesulfonyl-2-(2,2,2-trifluoro-ethoxy)-phenyl]-[4-(4-trifluoromethyl-phenyl)3,6-dihydro-2H-pyridin-1-yl]-methanone] |
| 0.87 µM | CC(C)Oc1ccc(S(C)(=O)=O)cc1C(=O)N1CC=C(c2ccc(S(C)(=O)=O)cc2)CC1 [Example 7, (2-Isopropoxy-5-methanesulfonyl-phenyl)-[4-(4-methanesulfonyl-phenyl)-3,6-dihydro-2H-pyridin-1-yl]-methanone] |
| 0.232 µM | CS(=O)(=O)c1ccc(N2CCOCC2)c(C(=O)N2CC=C(c3ccc(C(F)(F)F)cc3)CC2)c1 [Example 5, (5-Methanesulfonyl-2-morpholin-4-yl-phenyl)-[4-(4-trifluoromethyl-phenyl)-3,6 dihydro-2H-pyridin-1-yl]-methanone] |
| 0.803 µM | O=C(c1cc([N+](=O)[O-])ccc1N1CCOCC1)N1CC=C(c2ccccc2)CC1 [Example 1, (2-Morpholin-4-yl-5-nitro-phenyl)-(4-phenyl-3,6-dihydro-2H-pyridin-1-yl)-methanone] |
| 0.201 µM | CS(=O)(=O)c1ccc(C2=CCN(C(=O)c3cc(S(C)(=O)=O)ccc3OC3CCCC3)CC2)cc1 [Example 8, (2-Cyclopentyloxy-5-methanesulfonyl-phenyl)-[4-(4-methanesulfonyl-phenyl)-3,6-dihydro-2H-pyridin-1-yl]-methanone] |
| 0.27 µM | N#Cc1ccc(C2=CCN(C(=O)c3cc([N+](=O)[O-])ccc3N3CCOCC3)CC2)cc1 [Example 3, 4-[1-(2-Morpholin-4-yl-5-nitro-benzoyl)-1,2,3,6-tetrahydro-pyridin-4-yl]benzonitrile] |
